# Experimental data reported in patent US12414958B2, “Medicament and use thereof for treating bacterial infections involving biofilm” (Debiopharm International S.A., priority 2019, dated 2025).
# Legend:
# [1] = test system: MRSA 43300; test: MIC of Debio 1452; type: cell-based; conditions: Staphylococcus aureus
# [2] = test system: ATCC 43300 MRSA strain; test: Induction of resistance studies, ex vivo bacterial exposure to 4×MIC (Example 1); type: cell-based, Staphylococcus aureus; conditions: ex vivo exposure to 4×MIC; single and combination therapy; 24h or 72h biofilm
# Experimental: Two experimental settings were used in this study to evaluate the treatment efficacies against early (24h) and/or mature (72h) MRSA catheter formed biofilms. Briefly, mice were anaesthetised by an IP injection of about 120 μl a mix of ketamine (50 mg/kg) and xylazine (10 mg/kg) (4 mL ketamine+2 mL xylazine+10 mL saline). Flank on the right side was shaved and then disinfected by 3 consecutive applications of betadine. A cutaneous and then subcutaneous (SC) incisions of 0.2 cm were made under sterile conditions and a 1 cm segment of polyurethane catheter (Ref. No. ES-04730 Arrow international) cut into 2 longitudinal fragments was inserted SC (into the incision and then pushed further under the skin, about 2 cm away from the incision). The inoculation was done simultaneously by placing 50 μl of the bacterial culture onto the catheter (10^6 CFU of ATCC 43300 MRSA strain). The incision was stitched up and disinfected. The day of the infection was referred to as Day0 (D0). To ensure that the study was conducted in sterile conditions from the start to the end of the experiment, non-infected mice (sentinel group) were included. […] In both 24 h and 72h biofilm settings, two groups of infected non-treated animals (Vehicle controls) were evaluated for bacterial counts: at baseline (24h or D1 [for 24-h biofilm] and 72h or D3 [for 72-h biofilm] post infection, i.e. time points corresponding to treatments initiations) and at the termination of treatment duration (D6 [for 24-h biofilm] and D8 [for 72-h biofilm] post infection). Post treatment CFUs were counted on D6 or D8 and results were expressed as Log10 CFU/g of catheter (Mean±SEM). The limit of detection was determined as being 1 Log10 CFU/g of catheter. Changes of CFU/g of catheter (Δ Log10) from the baseline (D1 or D3 for 24-h and 72-h biofilm, respectively) and cure rates (corresponding to the percentage of mice without catheter-associated bacteria within a given treatment group) were also calculated. In vivo induction of antibiotic-resistant bacteria was analysed for all tested antibiotics.
# [3] = test system: ATCC 43300 MRSA strain; test: In vivo murine model of catheter associated infection, 24 h and 72 h MRSA biofilms; parameters: species or system Staphylococcus aureus; conditions: for CR (%) cure rate: 5.5-day treatment, percentage of mice without catheter-associated bacteria
# Experimental: Two experimental settings were used in this study to evaluate the treatment efficacies against early (24h) and/or mature (72h) MRSA catheter formed biofilms. Briefly, mice were anaesthetised by an IP injection of about 120 μl a mix of ketamine (50 mg/kg) and xylazine (10 mg/kg) (4 mL ketamine+2 mL xylazine+10 mL saline). Flank on the right side was shaved and then disinfected by 3 consecutive applications of betadine. A cutaneous and then subcutaneous (SC) incisions of 0.2 cm were made under sterile conditions and a 1 cm segment of polyurethane catheter (Ref. No. ES-04730 Arrow international) cut into 2 longitudinal fragments was inserted SC (into the incision and then pushed further under the skin, about 2 cm away from the incision). The inoculation was done simultaneously by placing 50 μl of the bacterial culture onto the catheter (10^6 CFU of ATCC 43300 MRSA strain). The incision was stitched up and disinfected. The day of the infection was referred to as Day0 (D0). To ensure that the study was conducted in sterile conditions from the start to the end of the experiment, non-infected mice (sentinel group) were included. Treatments started either on D1 or D3 post infection, corresponding to early (24h) or more mature (72h) catheter formed biofilms, respectively, and lasted for 5.5 days (D1-D6) or (D3-D8). In both 24 h and 72h biofilm settings, two groups of infected non-treated animals (Vehicle controls) were evaluated for bacterial counts: at baseline (24h or D1 [for 24-h biofilm] and 72h or D3 [for 72-h biofilm] post infection, i.e. time points corresponding to treatments initiations) and at the termination of treatment duration (D6 [for 24-h biofilm] and D8 [for 72-h biofilm] post infection). Post treatment CFUs were counted on D6 or D8 and results were expressed as Log10 CFU/g of catheter (Mean±SEM). The limit of detection was determined as being 1 Log10 CFU/g of catheter. Changes of CFU/g of catheter (Δ Log10) from the baseline (D1 or D3 for 24-h and 72-h biofilm, respectively) and cure rates (corresponding to the percentage of mice without catheter-associated bacteria within a given treatment group) were also calculated. In vivo induction of antibiotic-resistant bacteria was analysed for all tested antibiotics.
# Antibiotics doses were selected according to the effective doses in animals, which approximated the therapeutic human equivalent doses (HED) (Table 1).
# Mice received antibiotics on D1, D2, D3, D4, D5 and D6 (only one administration at D6) or D3, D4, D5, D6, D7 and D8 (only one administration at D8). All antibiotics were administered BID IP, except Debio 1450 BES and Vancomycin, which were respectively given PO and SC. Daptomycin was tested as a once daily regimen to avoid tolerability issues. The antibiotics daily dosing was performed with a 10-12 hours interval between the two administrations. For combination therapy, antibiotics were administered simultaneously every 10-12 hours (the time required between the injection of the first antibiotic and the injection of the second antibiotic was less than 30 seconds per mouse).
# In each sub-study, animals were randomly assigned to the antibiotic therapies or vehicle controls groups. Dose volumes were calculated according to individual body weight of each animal.
# After blood collection, animals were sacrificed by cervical dislocation following anaesthesia. Two fragments of catheter per mouse were collected and were used for bacterial enumeration after sonication. Each fragment of catheter was individually washed under aseptic conditions in an Eppendorf tube (3 successive washing steps with 300 μl sterile saline). After the last wash, the catheter was suspended in 1 mL sterile saline, put in an ultrasonic bath (Advantage Lab) for 3 minutes at room temperature before being vigorously vortexed in order to detach all adherent bacteria from the catheter. Several successive dilutions of this suspension (undiluted, 10-2, […]) were cultured onto Chapman agar plates for 48 h at 37° C. […]
Compound,MIC ([1]; determined in-house),MIC ([1]; historical data from the Sponsor),emergence of resistant mutants [2],"Log10 CFU/g of catheter (D 6) Mean ± SEM ([3]; Biofilm (24 h), 5.5-day treatment (D1-D6), BALB/c mice, doses as in Table 2)","ΔLog10 CFU/g of catheter from (D 1) Mean ± SEM ([3]; Biofilm (24 h), 5.5-day treatment (D1-D6), change from baseline D 1, BALB/c mice)",CR (%) cure rate ([3]; Biofilm (24 h)),"Log10 CFU/g of catheter (D 8) Mean ± SEM ([3]; Biofilm (72 h), 5.5-day treatment (D3-D8), BALB/c mice, doses as in Table 2)","ΔLog10 CFU/g of catheter from (D 3) Mean ± SEM ([3]; Biofilm (72 h), 5.5-day treatment (D3-D8), change from baseline D 3, BALB/c mice)",CR (%) cure rate ([3]; Biofilm (72 h))
"Cc1c(CN(C)C(=O)/C=C/c2cnc3c(c2)CCC(=O)N3)oc2ccccc12 [Debio 1452, (E)-N-methyl-N-((3-methylbenzofuran-2-yl)methyl)-3-(7-oxo-5,6,7,8-tetrahydro-1,8-naphthyridin-3-yl) acrylamide]",0.0625 µg/mL,0.008 µg/mL,no emergence of resistant mutants,–,–,–,–,–,–
CN[C@H](CC(C)C)C(=O)N[C@H]1C(=O)N[C@@H](CC(N)=O)C(=O)N[C@H]2C(=O)N[C@H]3C(=O)N[C@H](C(=O)N[C@H](C(=O)O)c4cc(O)cc(O)c4-c4cc3ccc4O)[C@H](O)c3ccc(c(Cl)c3)Oc3cc2cc(c3O[C@@H]2O[C@H](CO)[C@@H](O)[C@H](O)[C@H]2O[C@H]2C[C@](C)(N)[C@H](O)[C@H](C)O2)Oc2ccc(cc2Cl)[C@H]1O [Vancomycin],–,–,no emergence of resistant mutants,5.08 ± 0.105 Log10 CFU/g of catheter,−1.59 ± 0.105 Log10 CFU/g of catheter,0%,4.84 ± 0.077 Log10 CFU/g of catheter,−1.94 ± 0.077 Log10 CFU/g of catheter,0%
